Experimental data: PubChem BioAssay (NCI)
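Cultured in 96-well plates, cells were exposed to test compound for 48 hours across five concentrations. Here, GI50 denotes the concentration required for 50% inhibition of growth. TGI is the concentration that stops growth completely.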

What was measured:
Experiment in all cases: inhibition of tumour cell growth, NCI panel, 48 h
SNB-75 CNS = test system: SNB-75 CNS
MDA-MB-231 breast = test system: MDA-MB-231 breast
LOX IMVI melanoma = test system: LOX IMVI melanoma
UACC-62 melanoma = test system: UACC-62 melanoma
A549 NSCLC = test system: A549 NSCLC
HL-60(TB) leukemia = test system: HL-60(TB) leukemia
HOP-62 NSCLC = test system: HOP-62 NSCLC
EKVX NSCLC = test system: EKVX NSCLC
COLO 205 colon = test system: COLO 205 colon
OVCAR-5 ovarian = test system: OVCAR-5 ovarian
UO-31 renal = test system: UO-31 renal
RXF 393 renal = test system: RXF 393 renal
M14 melanoma = test system: M14 melanoma
OVCAR-4 ovarian = test system: OVCAR-4 ovarian
A498 renal = test system: A498 renal
HCC-2998 colon = test system: HCC-2998 colon
KM12 colon = test system: KM12 colon
OVCAR-3 ovarian = test system: OVCAR-3 ovarian
DU-145 prostate = test system: DU-145 prostate
SK-MEL-2 melanoma = test system: SK-MEL-2 melanoma
SF-295 CNS = test system: SF-295 CNS
SK-MEL-28 melanoma = test system: SK-MEL-28 melanoma
MOLT-4 leukemia = test system: MOLT-4 leukemia
IGROV1 ovarian = test system: IGROV1 ovarian
HOP-92 NSCLC = test system: HOP-92 NSCLC
SK-OV-3 ovarian = test system: SK-OV-3 ovarian
NCI-H226 lung = test system: NCI-H226 lung
SF-268 CNS = test system: SF-268 CNS
SW-620 colon = test system: SW-620 colon
HS 578T breast = test system: HS 578T breast
RPMI-8226 leukemia = test system: RPMI-8226 leukemia
MDA-MB-435 = test system: MDA-MB-435
T-47D breast = test system: T-47D breast
NCI-H522 lung = test system: NCI-H522 lung
SR leukemia = test system: SR leukemia
K-562 leukemia = test system: K-562 leukemia
CCRF-CEM leukemia = test system: CCRF-CEM leukemia
PC-3 prostate = test system: PC-3 prostate
NCI-H23 lung = test system: NCI-H23 lung
U251 CNS = test system: U251 CNS
SK-MEL-5 melanoma = test system: SK-MEL-5 melanoma
NCI-H460 lung = test system: NCI-H460 lung
NCI/ADR-RES ovarian = test system: NCI/ADR-RES ovarian
TK-10 renal = test system: TK-10 renal
MALME-3M melanoma = test system: MALME-3M melanoma
SNB-19 CNS = test system: SNB-19 CNS
UACC-257 melanoma = test system: UACC-257 melanoma
HCT-15 colon = test system: HCT-15 colon
SN12C renal = test system: SN12C renal
HCT-116 colon = test system: HCT-116 colon
BT-549 breast = test system: BT-549 breast
MCF7 breast = test system: MCF7 breast
HT29 colon = test system: HT29 colon
SF-539 CNS = test system: SF-539 CNS
OVCAR-8 ovarian = test system: OVCAR-8 ovarian
786-0 renal = test system: 786-0 renal

## c1ccc(-c2n(Cc3ccc4ccccc4n3)cc[n+]2Cc2ccc3ccccc3n2)cc1
SNB-75 CNS
  GI50: 1.33 µM
  TGI: 5.07 µM
MDA-MB-231 breast
  GI50: 1.69 µM
  TGI: 8.58 µM
LOX IMVI melanoma
  GI50: 2.35 µM
  TGI: 10.8 µM
UACC-62 melanoma
  GI50: 0.675 µM
  TGI: 4.17 µM
A549 NSCLC
  GI50: 13.5 µM
  TGI: 51.1 µM
HL-60(TB) leukemia
  GI50: 0.399 µM
  TGI: 1.7 µM
HOP-62 NSCLC
  GI50: 5.66 µM
  TGI: 20.8 µM
EKVX NSCLC
  GI50: 2.91 µM
  TGI: 31.4 µM
COLO 205 colon
  GI50: 1.41 µM
  TGI: 4.05 µM
OVCAR-5 ovarian
  GI50: 5 µM
  TGI: 21.5 µM
UO-31 renal
  GI50: 12.6 µM
  TGI: 39.2 µM
RXF 393 renal
  GI50: 2.8 µM
  TGI: 14 µM
M14 melanoma
  GI50: 2.35 µM
  TGI: 11.5 µM
OVCAR-4 ovarian
  GI50: 0.709 µM
  TGI: 7.02 µM
A498 renal
  GI50: 1.81 µM
  TGI: 10.1 µM
HCC-2998 colon
  GI50: 1.93 µM
  TGI: 11.7 µM
KM12 colon
  GI50: 1.76 µM
  TGI: 10.5 µM
OVCAR-3 ovarian
  GI50: 1.05 µM
  TGI: 12.1 µM
DU-145 prostate
  GI50: 4.29 µM
  TGI: 18.5 µM
SK-MEL-2 melanoma
  GI50: 1.96 µM
  TGI: 5.96 µM
SF-295 CNS
  GI50: 3.22 µM
  TGI: 14.5 µM
SK-MEL-28 melanoma
  GI50: 0.983 µM
  TGI: 12.9 µM
MOLT-4 leukemia
  GI50: 4.24 µM
  TGI: 17.2 µM
IGROV1 ovarian
  GI50: 1.87 µM
  TGI: 16.4 µM
HOP-92 NSCLC
  GI50: 0.269 µM
  TGI: 2.47 µM
SK-OV-3 ovarian
  GI50: 3.39 µM
  TGI: 11.8 µM
NCI-H226 lung
  GI50: 1.76 µM
  TGI: 9.72 µM
SF-268 CNS
  GI50: 3.32 µM
  TGI: 14.7 µM
SW-620 colon
  GI50: 2.65 µM
  TGI: 14.5 µM
HS 578T breast
  GI50: 2.76 µM
  TGI: 14.3 µM
RPMI-8226 leukemia
  GI50: 0.269 µM
  TGI: 5.09 µM
MDA-MB-435
  GI50: 1.8 µM
  TGI: 10.2 µM
T-47D breast
  GI50: 0.498 µM
  TGI: 7.77 µM
NCI-H522 lung
  GI50: 1.92 µM
  TGI: 8.72 µM
SR leukemia
  GI50: 1.29 µM
  TGI: 13.2 µM
K-562 leukemia
  GI50: 0.754 µM
  TGI: 13.6 µM
CCRF-CEM leukemia
  GI50: 2.9 µM
  TGI: 14.7 µM
PC-3 prostate
  GI50: 2.64 µM
  TGI: 12.1 µM
NCI-H23 lung
  GI50: 1.23 µM
  TGI: 9.58 µM
U251 CNS
  GI50: 2.66 µM
  TGI: 12.4 µM
SK-MEL-5 melanoma
  GI50: 0.542 µM
  TGI: 1.85 µM
NCI-H460 lung
  GI50: 2.49 µM
  TGI: 11.9 µM
NCI/ADR-RES ovarian
  GI50: > 100 µM
  TGI: > 100 µM
TK-10 renal
  GI50: 5.38 µM
  TGI: 18.3 µM
MALME-3M melanoma
  GI50: 1.57 µM
  TGI: 8.02 µM
SNB-19 CNS
  GI50: 2.18 µM
  TGI: 13.1 µM
UACC-257 melanoma
  GI50: 1.01 µM
  TGI: 5.21 µM
HCT-15 colon
  GI50: 20.2 µM
  TGI: 85.6 µM
SN12C renal
  GI50: 2.25 µM
  TGI: 11.2 µM
HCT-116 colon
  GI50: 2.06 µM
  TGI: 11.4 µM
BT-549 breast
  GI50: 1.65 µM
  TGI: 8.48 µM
MCF7 breast
  GI50: 1.87 µM
  TGI: 11.1 µM
HT29 colon
  GI50: 2.39 µM
  TGI: 11.5 µM
SF-539 CNS
  GI50: 2.92 µM
  TGI: 13.2 µM
OVCAR-8 ovarian
  GI50: 3.25 µM
  TGI: 13.9 µM
786-0 renal
  GI50: 5.45 µM
  TGI: 18.5 µM
